Reference: ChEMBL document CHEMBL5543113, “Amphiphilic α-Peptoid-deoxynojirimycin Conjugate-based Multivalent Glycosidase Inhibitor for Hypoglycemic Effect and Fluorescence Imaging” (J Med Chem, 2024)

Tested on: Mus musculus
Assay: Hypoglycemic activity in KKAy diabetic mouse model assessed as blood glucose level at 1.6 mg/kg, po co-administered with maltose and measured after 60 mins by glucometer (reference value: 582.6 +/- 22.9 mg/dl)
Type: functional
Conditions: 1 h

`CCCCCCCCCCCCCCCCCCNC(=O)CN(Cc1cn(CCCCCCN2C[C@H](O)[C@@H](O)[C@H](O)[C@H]2CO)nn1)C(=O)CN(Cc1cn(CCCCCCN2C[C@H](O)[C@@H](O)[C@H](O)[C@H]2CO)nn1)C(=O)CN(Cc1cn(CCCCCCN2C[C@H](O)[C@@H](O)[C@H](O)[C@H]2CO)nn1)C(=O)CN(Cc1cn(CCCCCCN2C[C@H](O)[C@@H](O)[C@H](O)[C@H]2CO)nn1)C(C)=O` was tested, and the Activity was 432.6 mg/dL.
